The test system of this test is L1210 leukemia ip in BDF1 mice, survival T/C. The experiment in a line: NCI In Vivo Anticancer Drug Screen. Data for tumor model L1210 Leukemia (intraperitoneal) in B6D2F1 (BDF1) mice. The following applies: endpoint: mean survival time, higher = longer survival. Summed up:
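Mice bearing the transplanted tumor received compound or vehicle. Survival of the treated group was divided by that of the vehicle-treated control group to give the ratio.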

Where [1] appears, read: dose: 50.0 mg/kg/injection, schedule: Q01DX001 (ip), vehicle: carboxymethylcellulose (CMC).
Where [2] appears, read: dose: 100.0 mg/kg/injection, schedule: Q01DX001 (ip), vehicle: carboxymethylcellulose (CMC).
[3] abbreviates: dose: 200.0 mg/kg/injection, schedule: Q01DX001 (ip), vehicle: carboxymethylcellulose (CMC).
[4] abbreviates: dose: 400.0 mg/kg/injection, schedule: Q01DX001 (ip), vehicle: carboxymethylcellulose (CMC).
[5] abbreviates: dose: 50.0 mg/kg/injection, schedule: Q01DX001 (ip), vehicle: saline.
The mark [6] stands for this setting: dose: 100.0 mg/kg/injection, schedule: Q01DX001 (ip), vehicle: saline.
Where [7] appears, read: dose: 200.0 mg/kg/injection, schedule: Q01DX001 (ip), vehicle: saline.
Setting [8] is: dose: 400.0 mg/kg/injection, schedule: Q01DX001 (ip), vehicle: saline.
Where [9] appears, read: dose: 100.0 mg/kg/injection, schedule: Q04DX002 (ip), vehicle: Klucel (hydroxypropylcellulose) (HPC).
The mark [10] stands for this setting: dose: 200.0 mg/kg/injection, schedule: Q04DX002 (ip), vehicle: Klucel (hydroxypropylcellulose) (HPC).
Setting [11] is: dose: 400.0 mg/kg/injection, schedule: Q04DX002 (ip), vehicle: Klucel (hydroxypropylcellulose) (HPC).
[12] abbreviates: dose: 200.0 mg/kg/injection, schedule: Q01DX009 (ip), vehicle: saline.
[13] abbreviates: dose: 400.0 mg/kg/injection, schedule: Q01DX009 (ip), vehicle: saline.
The mark [14] stands for this setting: dose: 100.0 mg/kg/injection, schedule: Q01DX009 (ip), vehicle: Klucel (hydroxypropylcellulose) (HPC).
[15] abbreviates: dose: 200.0 mg/kg/injection, schedule: Q01DX009 (ip), vehicle: Klucel (hydroxypropylcellulose) (HPC).
The mark [16] stands for this setting: dose: 400.0 mg/kg/injection, schedule: Q01DX009 (ip), vehicle: Klucel (hydroxypropylcellulose) (HPC).
Setting [17] is: dose: 75.0 mg/kg/injection, schedule: Q01DX001 (ip), vehicle: saline.
Setting [18] is: dose: 150.0 mg/kg/injection, schedule: Q01DX001 (ip), vehicle: saline.
The mark [19] stands for this setting: dose: 100.0 mg/kg/injection, schedule: Q01DX009 (ip), vehicle: saline with Tween-80.
Where [20] appears, read: dose: 200.0 mg/kg/injection, schedule: Q01DX009 (ip), vehicle: saline with Tween-80.

In PubChem BioAssay AID248 (DTP/NCI, 2004) one finds T/C data, which are given here for 21 molecules.

The structures appear in SMILES notation. Inconclusive results and toxic doses are left out.

`O=C(CBr)CC(O)(C(F)(F)F)C(F)(F)F`: the T/C is, setting by setting: (dose: 3.0 mg/kg/injection, schedule: Q01DX009 (ip), vehicle: saline) 93 % of control; (dose: 6.0 mg/kg/injection, schedule: Q01DX009 (ip), vehicle: saline) 103 % of control; (dose: 12.0 mg/kg/injection, schedule: Q01DX009 (ip), vehicle: saline) 103 % of control.

Consider `CCOc1ccccc1/C=N/Nc1nnc(N/N=C/c2ccccc2OCC)c2ccccc12`, for which the T/C was 91 % of control under setting [1], 97 % of control under setting [2], 97 % of control under setting [3] and 91 % of control under setting [4].

As for `COc1ccn(C2CCCO2)c(=O)n1` (configuration not stated), the T/C was 101 % of control under setting [5], 101 % of control under setting [6], 104 % of control under setting [7] and 104 % of control under setting [8].

Regarding `CC1CC(NC(=S)NC(=O)c2ccccc2Cl)CC(C)(C)C1` (configuration not stated), the T/C runs as follows: (dose: 100.0 mg/kg/injection, schedule: Q04DX002 (ip), vehicle: saline with Tween-80) 98 % of control; (dose: 200.0 mg/kg/injection, schedule: Q04DX002 (ip), vehicle: saline with Tween-80) 113 % of control; (dose: 400.0 mg/kg/injection, schedule: Q04DX002 (ip), vehicle: saline with Tween-80) 102 % of control.

Consider `CCOC(=O)NCC(C)(CCN1CCCC1)c1cccc2ccccc12` (configuration not stated), for which the T/C runs as follows: (dose: 12.5 mg/kg/injection, schedule: Q01DX009 (ip), vehicle: saline with Tween-80) 93 % of control; (dose: 12.5 mg/kg/injection, schedule: Q04DX003 (ip), vehicle: Klucel (hydroxypropylcellulose) (HPC)) 100 % of control; (dose: 25.0 mg/kg/injection, schedule: Q01DX009 (ip), vehicle: saline with Tween-80) 88 % of control; (dose: 25.0 mg/kg/injection, schedule: Q04DX003 (ip), vehicle: Klucel (hydroxypropylcellulose) (HPC)) 100 % of control; (dose: 50.0 mg/kg/injection, schedule: Q04DX003 (ip), vehicle: Klucel (hydroxypropylcellulose) (HPC)) 100 % of control.

As for `Cc1cccc([N+](=O)[O-])c1O`, the T/C reads like this: under setting [9], 99 % of control; under setting [10], 95 % of control; under setting [11], 87 % of control.

`CC(CNC(=O)CCBr)NC(=O)CCBr` (configuration not stated): the T/C is 103 % of control (dose: 50.0 mg/kg/injection, schedule: Q01DX Z (ip), vehicle: carboxymethylcellulose (CMC)); 100 % of control (dose: 170.0 mg/kg/injection, schedule: Q01DX Z (ip), vehicle: carboxymethylcellulose (CMC)); 153 % of control under setting [12]; 178 % of control under setting [13].

In the case of `N#Cc1c(N)sc(N)c1C#N`, the T/C by setting is: under setting [14], 96 % of control; (dose: 100.0 mg/kg/injection, schedule: Q04DX003 (ip), vehicle: Klucel (hydroxypropylcellulose) (HPC)) 100 % of control; under setting [15], 89 % of control; (dose: 200.0 mg/kg/injection, schedule: Q04DX003 (ip), vehicle: Klucel (hydroxypropylcellulose) (HPC)) 98 % of control; under setting [16], 96 % of control; (dose: 400.0 mg/kg/injection, schedule: Q04DX003 (ip), vehicle: Klucel (hydroxypropylcellulose) (HPC)) 98 % of control.

As to `Nc1ccc(C(=O)OCCCCC2CCCC2N)cc1` (configuration not stated), the T/C is, setting by setting: under setting [17], 97 % of control; under setting [18], 113 % of control.

Take `COc1ccccc1CN1CCCN(Cc2ccccc2OC)C1c1ccc(N(CCCl)CCCl)cc1`: the T/C was 115 % of control under setting [1], 104 % of control under setting [2], 104 % of control under setting [3] and 104 % of control under setting [4].

With `CC(=O)Nc1cncc2ccccc12`, the T/C is 104 % of control (dose: 100.0 mg/kg/injection, schedule: Q01DX009 (ip), vehicle: other); 97 % of control (dose: 100.0 mg/kg/injection, schedule: Q04DX002 (ip), vehicle: other); 101 % of control (dose: 200.0 mg/kg/injection, schedule: Q01DX009 (ip), vehicle: other); 105 % of control (dose: 200.0 mg/kg/injection, schedule: Q04DX002 (ip), vehicle: other); 106 % of control (dose: 400.0 mg/kg/injection, schedule: Q01DX009 (ip), vehicle: other); 105 % of control (dose: 400.0 mg/kg/injection, schedule: Q04DX002 (ip), vehicle: other).

In the case of `CC(/C=C/c1ccc2c(c1)OCO2)[N+](=O)[O-]` (configuration not stated), the T/C was 103 % of control (dose: 100.0 mg/kg/injection, schedule: Q01DX001 (ip), vehicle: Klucel (hydroxypropylcellulose) (HPC)); 103 % of control (dose: 200.0 mg/kg/injection, schedule: Q01DX001 (ip), vehicle: Klucel (hydroxypropylcellulose) (HPC)); 106 % of control (dose: 400.0 mg/kg/injection, schedule: Q01DX001 (ip), vehicle: Klucel (hydroxypropylcellulose) (HPC)).

With `COC1OC(COC(=O)c2ccccc2)C(OC(=O)c2ccccc2)C(OC(=O)c2ccccc2)C1OC(=O)c1ccccc1` (configuration not stated), the T/C was 116 % of control under setting [19]; 107 % of control under setting [20]; 107 % of control (dose: 400.0 mg/kg/injection, schedule: Q01DX009 (ip), vehicle: saline with Tween-80).

For `C[N+](C)(C)CCC[N+]1(C)CCC2(CCCC(C(F)(F)F)C2)CC1` (configuration not stated), the T/C is 98 % of control under setting [5], 104 % of control under setting [6] and 96 % of control under setting [7].

`Cc1cc(N=Cc2ccc(Cl)cc2)c(N=Cc2ccc(Cl)cc2)cc1C`: the T/C (dose: 100.0 mg/kg/injection, schedule: Q01DX005 (ip), vehicle: Klucel (hydroxypropylcellulose) (HPC)) is 99 % of control; the T/C under setting [14] is 108 % of control; the T/C under setting [9] was 95 % of control; the T/C (dose: 200.0 mg/kg/injection, schedule: Q01DX005 (ip), vehicle: Klucel (hydroxypropylcellulose) (HPC)) is 96 % of control; the T/C under setting [15] was 115 % of control; the T/C under setting [10] is 95 % of control. The T/C runs as follows: (dose: 400.0 mg/kg/injection, schedule: Q01DX005 (ip), vehicle: Klucel (hydroxypropylcellulose) (HPC)) 92 % of control; under setting [16], 97 % of control; under setting [11], 95 % of control.

Regarding `CC(C)C1CCC(C)C(C(O)(C(F)(F)F)C(F)(F)F)C1=O` (configuration not stated), the T/C by setting is: (dose: 100.0 mg/kg/injection, schedule: Q01DX009 (ip), vehicle: saline) 114 % of control; under setting [12], 97 % of control; under setting [13], 97 % of control.

For the molecule `CCOC(=O)c1cc(C=O)nc2c(Cl)cc(Cl)cc12`, the T/C reads like this: under setting [19], 89 % of control; under setting [20], 92 % of control.

`Cc1cc(=O)n2c(n1)Nc1ccccc1C2`: the T/C runs as follows: under setting [6], 87 % of control; under setting [7], 93 % of control; under setting [8], 87 % of control.

For the molecule `CC(C)(C)C1CCNC(=O)CC1` (configuration not stated), the T/C runs as follows: (dose: 10.0 mg/kg/injection, schedule: Q01DX009 (ip), vehicle: Klucel (hydroxypropylcellulose) (HPC)) 95 % of control; (dose: 20.0 mg/kg/injection, schedule: Q01DX009 (ip), vehicle: Klucel (hydroxypropylcellulose) (HPC)) 103 % of control; (dose: 20.0 mg/kg/injection, schedule: Q04DX003 (ip), vehicle: Klucel (hydroxypropylcellulose) (HPC)) 107 % of control; (dose: 40.0 mg/kg/injection, schedule: Q04DX003 (ip), vehicle: Klucel (hydroxypropylcellulose) (HPC)) 103 % of control; (dose: 75.0 mg/kg/injection, schedule: Q01DX001 (ip), vehicle: carboxymethylcellulose (CMC)) 102 % of control; (dose: 150.0 mg/kg/injection, schedule: Q01DX001 (ip), vehicle: carboxymethylcellulose (CMC)) 102 % of control. The T/C (dose: 300.0 mg/kg/injection, schedule: Q01DX001 (ip), vehicle: carboxymethylcellulose (CMC)) is 96 % of control.

On to `Cc1cc(NS(=O)(=O)c2ccc(N=Nc3c(N)[nH]c(=O)[nH]c3=O)cc2)nc(C)n1`, for which the T/C runs as follows: under setting [6], 115 % of control; under setting [7], 96 % of control; under setting [8], 93 % of control.

For `CCOP(=O)(OCC)Oc1cc(C)c(SC)c(C)c1`, the T/C under setting [17] is 89 % of control and the T/C under setting [18] was 101 % of control.
